Data: patent publication US8785459B2, “Quinazoline compounds as kinase inhibitors” (Development Center for Biotechnology, priority 2011, dated 2014)
Where two headings read alike, the source gives them in different places.

Key:
Type in all cases: biochemical
B-Raf (V600E) = B-Raf (V600E) (Homo sapiens (Human), UniProt P15056, V600E); assay: Raf kinase assay (B-Raf (V600E)), [33P] incorporation into MEK1(K97R)
Protocol: (§1) A. Raf Kinase Assays (B-Raf, B-raf (V600E), and C-Raf)
(§2) Inhibition of kinase activity by test compound disclosed herein was estimated by quantifying the amount of [^33P] incorporation of substrate in the presence of test compound. Standard assay conditions were 2 ng of recombinant C-Raf or 5 ng of recombinant B-Raf or 5 ng of recombinant B-Raf (V600E) kinase (Upstate Biotechnology) with 500 ng MEK1(K97R) in assay buffer {8 μM ATP, 0.5 μCi [^33P]ATP (specific activity 3000 Ci/mmol, PerkinElmer), 50 mM Tris/HCl (pH7.5), and 1 mM EGTA, 1 mM Na3VO4, 1% 2-mercaptoethanol, 0.1% Brij 35, and 0.2 mg/ml BSA} at a final volume of 25 μL. Reactions were incubated at 30° C. for 30 min and stopped by adding 3% phosphoric acid, harvested onto a 96-well GF/B UniFilter (PerkinElmer) using a unifilter harvester (PerkinElmer), and counted with a TopCount microplate scintillation counter (PerkinElmer). The IC50 values of inhibitors were determined after carrying out assays at 3-fold serially diluted concentrations of each compound in duplication. The results were analyzed using linear regression software (GraphPad Prism 4; GraphPad Software Inc.). Inhibition of B-Raf, B-raf (V600E), and C-Raf kinases by various compounds listed in Table 1 are summarized and shown in Table 3 below. IC50 value is defined as the concentration of the test compound which achieves a half-maximal inhibition of the kinase activity.

B-Raf = B-Raf (Homo sapiens (Human), UniProt P15056); assay: Raf kinase assay (B-Raf), [33P] incorporation into MEK1(K97R); details: for inhibition at 1 µM: read-out: B-Raf inhibition at 1.0 μM
Protocol: as §1, §2

C-Raf = C-Raf (Homo sapiens (Human), UniProt P04049); assay: Raf kinase assay (C-Raf), [33P] incorporation into MEK1(K97R)
Protocol: as §1, §2

Chain of C-Raf (P04049 whole entry): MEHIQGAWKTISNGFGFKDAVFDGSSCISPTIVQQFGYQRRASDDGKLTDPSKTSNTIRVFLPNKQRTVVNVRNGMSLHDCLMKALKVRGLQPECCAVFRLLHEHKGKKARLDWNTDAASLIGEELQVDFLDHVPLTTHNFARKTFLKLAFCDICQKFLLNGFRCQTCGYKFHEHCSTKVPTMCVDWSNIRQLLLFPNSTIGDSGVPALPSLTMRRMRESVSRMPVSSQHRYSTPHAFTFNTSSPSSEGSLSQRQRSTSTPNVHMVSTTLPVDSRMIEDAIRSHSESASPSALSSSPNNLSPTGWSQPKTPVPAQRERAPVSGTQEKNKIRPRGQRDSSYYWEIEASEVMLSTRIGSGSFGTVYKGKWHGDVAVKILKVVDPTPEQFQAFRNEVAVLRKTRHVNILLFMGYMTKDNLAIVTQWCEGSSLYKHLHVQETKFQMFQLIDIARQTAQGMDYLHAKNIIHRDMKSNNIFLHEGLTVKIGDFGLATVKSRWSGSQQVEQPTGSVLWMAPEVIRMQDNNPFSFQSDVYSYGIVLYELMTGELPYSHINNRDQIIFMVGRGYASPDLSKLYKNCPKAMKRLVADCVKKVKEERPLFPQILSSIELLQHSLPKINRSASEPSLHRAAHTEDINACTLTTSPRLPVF
Chain of B-Raf (P15056 whole entry): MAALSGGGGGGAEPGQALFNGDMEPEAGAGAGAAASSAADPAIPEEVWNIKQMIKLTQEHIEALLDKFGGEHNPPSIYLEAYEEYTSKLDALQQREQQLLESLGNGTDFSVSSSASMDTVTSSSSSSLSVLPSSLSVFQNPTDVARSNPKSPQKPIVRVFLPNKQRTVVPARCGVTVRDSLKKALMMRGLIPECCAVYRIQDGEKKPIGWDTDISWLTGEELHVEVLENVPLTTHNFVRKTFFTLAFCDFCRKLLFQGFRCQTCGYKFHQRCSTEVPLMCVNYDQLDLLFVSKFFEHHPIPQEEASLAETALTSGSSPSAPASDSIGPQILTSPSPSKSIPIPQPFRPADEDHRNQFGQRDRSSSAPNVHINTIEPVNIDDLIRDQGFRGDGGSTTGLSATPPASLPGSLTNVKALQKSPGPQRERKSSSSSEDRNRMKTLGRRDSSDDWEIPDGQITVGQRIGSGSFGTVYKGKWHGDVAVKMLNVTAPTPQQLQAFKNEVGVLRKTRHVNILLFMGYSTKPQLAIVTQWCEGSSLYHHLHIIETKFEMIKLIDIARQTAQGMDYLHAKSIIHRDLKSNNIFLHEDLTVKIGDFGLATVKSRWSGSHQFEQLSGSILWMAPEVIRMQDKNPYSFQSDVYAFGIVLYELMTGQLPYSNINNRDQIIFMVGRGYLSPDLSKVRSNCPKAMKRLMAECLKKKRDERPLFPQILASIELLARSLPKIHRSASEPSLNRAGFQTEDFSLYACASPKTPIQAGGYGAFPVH
Chain of B-Raf (V600E) (P15056 whole entry V600E): as the sequence (P15056 whole entry) above, with V600E counted along it

| Compound | inhibition at 1 µM (B-Raf; 1.0 μM compound) [%] | other results |
| --- | --- | --- |
| COc1cccc(-c2ccc3ncnc(Nc4ccccc4)c3c2)c1 [Compound 3, 6-(3-methoxyphenyl)-N-phenylquinazolin-4-amine] | – | IC50 (B-Raf (V600E)): 3390 nM; IC50 (B-Raf): 3290 nM; IC50 (C-Raf): > 10000 nM |
| Oc1ccc(-c2ccc3ncnc(Nc4ccccc4)c3c2)cc1 [Compound 4, 4-(4-(phenylamino)quinazolin-6-yl)phenol] | – | IC50 (B-Raf (V600E)): 4870 nM; IC50 (B-Raf): 3990 nM; IC50 (C-Raf): 9460 nM |
| COc1cc(-c2ccc3ncnc(Nc4ccccc4)c3c2)ccc1OC(=O)Nc1ccccc1 [Compound 7, 2-methoxy-4-(4-(phenylamino)quinazolin-6-yl)phenyl phenylcarbamate] | – | inhibition at 1 µM (B-Raf): 23.5% |
| CCNC(=O)Oc1ccc(-c2ccc3ncnc(Nc4ccccc4)c3c2)cc1OC [Compound 9, 2-methoxy-4-(4-(phenylamino)quinazolin-6-yl)phenyl ethylcarbamate] | – | inhibition at 1 µM (B-Raf): 13.8% |
| COc1ccc(-c2ccc3ncnc(Nc4ccccc4)c3c2)cc1 [Compound 10, 6-(4-methoxyphenyl)-N-phenylquinazolin-4-amine] | 15.8 | – |
| NC(=O)Nc1ccc(-c2ccc3ncnc(Nc4ccccc4)c3c2)cc1 [Compound 11, 1-(4-(4-(phenylamino)quinazolin-6-yl)phenyl)urea] | 19.9 | – |
| CCNC(=O)Nc1ccc(-c2ccc3ncnc(Nc4ccccc4)c3c2)cc1 [Compound 12, 1-ethyl-3-(4-(4-(phenylamino)quinazolin-6-yl)phenyl)urea] | 18.2 | – |
| CCS(=O)(=O)Nc1ccc(-c2ccc3ncnc(Nc4ccccc4)c3c2)cc1 [Compound 24, N-(4-(4-(phenylamino)quinazolin-6-yl)phenyl)ethanesulfonamide] | 48.6 | IC50 (B-Raf (V600E)): 1810 nM; IC50 (B-Raf): 1700 nM |
| CCS(=O)(=O)Nc1ccc(-c2ccc3ncnc(Nc4cccc(NS(=O)(=O)CC)c4)c3c2)cc1 [Compound 26, N-(3-(6-(4-(ethylsulfonamido)phenyl)quinazolin-4-ylamino)phenyl)ethanesulfonamide] | 45.7 | – |
| O=S(=O)(Nc1ccc(-c2ccc3ncnc(Nc4ccccc4)c3c2)cc1)c1ccccc1 [Compound 28, N-(4-(4-(phenylamino)quinazolin-6-yl)phenyl)benzenesulfonamide] | 30.5 | – |
| O=S(=O)(Nc1ccc(-c2ccc3ncnc(Nc4ccccc4)c3c2)cc1)c1ccc(F)cc1 [Compound 70, 4-fluoro-N-(4-(4-(phenylamino)quinazolin-6-yl)phenyl)benzenesulfonamide] | -6.5 | – |
| c1ccc(Nc2ncnc3ccc(-c4ccccc4)cc23)cc1 [Compound 132, N,6-diphenylquinazolin-4-amine] | 22.4 | – |
| COc1cc(-c2ccc3ncc(C#N)c(Nc4cccc5[nH]ncc45)c3c2)ccc1O [Compound 135, 4-(1H-indazol-4-ylamino)-6-(4-hydroxy-3-methoxyphenyl)quinoline-3-carbonitrile] | 24 | – |
| COc1cc(-c2ccc3nccc(Nc4ccc(Cl)c(NS(C)(=O)=O)c4)c3c2)ccc1O [Compound 141, N-(2-chloro-5-(6-(4-hydroxy-3-methoxyphenyl)quinolin-4-ylamino)phenyl)methanesulfonamide] | 4.6 | – |
| Fc1ccc(Nc2ncnc3ccc(-c4ccc5[nH]ncc5c4)cc23)cc1Cl [Compound 142, N-(3-chloro-4-fluorophenyl)-6-(1H-indazol-5-yl)quinazolin-4-amine] | 23.3 | – |
| COc1cc(-c2ccc3nccc(Nc4ccc(F)c(NS(C)(=O)=O)c4)c3c2)ccc1O [Compound 145, N-(2-fluoro-5-(6-(4-hydroxy-3-methoxyphenyl)quinolin-4-ylamino)phenyl)methanesulfonamide] | 7.5 | – |
| COc1cc(-c2ccc3ncnc(Nc4c(F)ccc5[nH]ncc45)c3c2)ccc1O [Compound 149, 4-(4-(5-fluoro-1H-indazol-4-ylamino)quinazolin-6-yl)-2-methoxyphenol] | – | B-Raf inhibition at 1.0 μM (B-Raf; 1.0 μM compound): 15.2% |
| COc1cc(-c2ccc3ncnc(Nc4cc(NS(C)(=O)=O)c(F)cc4F)c3c2)ccc1O [Compound 150, N-(2,4-difluoro-5-(6-(4-hydroxy-3-methoxyphenyl)quinazolin-4-ylamino)phenyl)methanesulfonamide] | 37.2 | – |
| C#Cc1cccc(Nc2ncnc3ccc(-c4ccc(OC)cc4)cc23)c1 [Compound 151, N-(3-ethynylphenyl)-6-(4-methoxyphenyl)quinazolin-4-amine] | -5.4 | – |

Now from value to compound, other results behind:

| inhibition at 1 µM (B-Raf; 1.0 μM compound) [%] | Compound | other results |
| --- | --- | --- |
| 7.7 | COc1cc(-c2ccc3ncnc(Nc4ccc(OC)c(OC)c4)c3c2)ccc1O [Compound 13, 4-(4-(3,4-dimethoxyphenylamino)quinazolin-6-yl)-2-methoxyphenol] | – |
| 51.5 | COc1cc(-c2ccc3ncnc(Nc4ccc(Cl)cc4F)c3c2)ccc1O [Compound 16, 4-(4-(4-chloro-2-fluorophenylamino)quinazolin-6-yl)-2-methoxyphenol] | IC50 (B-Raf (V600E)): 810 nM; IC50 (B-Raf): 817 nM; IC50 (C-Raf): 1250 nM |
| 59.4 | COc1cc(-c2ccc3ncnc(Nc4ccc(C)cc4F)c3c2)ccc1O [Compound 17, 4-(4-(2-fluoro-4-methylphenylamino)quinazolin-6-yl)-2-methoxyphenol] | IC50 (B-Raf (V600E)): 619 nM; IC50 (B-Raf): 647 nM; IC50 (C-Raf): 1910 nM |
| 10 | COc1cc(-c2cc3c(Nc4ccccc4)ncnc3cc2OC)ccc1O [Compound 30, 2-methoxy-4-(7-methoxy-4-(phenylamino)quinazolin-6-yl)phenol] | – |
| 34.7 | COc1cc(-c2ccc3ncnc(Nc4cccc(C(=O)O)c4)c3c2)ccc1O [Compound 32, 3-(6-(4-hydroxy-3-methoxyphenyl)quinazolin-4-ylamino)benzoic acid] | – |
| 32.2 | COc1cc(-c2ccc3ncnc(Nc4ccc5cc[nH]c5c4)c3c2)ccc1O [Compound 40, 4-(4-(1H-indol-6-ylamino)quinazolin-6-yl)-2-methoxyphenol] | – |
| 20.4 | COc1ccc(Nc2ncnc3cc(OC)c(-c4ccc(O)c(OC)c4)cc23)cc1O [Compound 42, 4-(4-(3-hydroxy-4-methoxyphenylamino)-7-methoxyquinazolin-6-yl)-2-methoxyphenol] | – |
| 37.8 | COc1cc(-c2ccc3ncnc(Nc4ccc(C(N)=O)cc4)c3c2)ccc1O [Compound 47, 4-(6-(4-hydroxy-3-methoxyphenyl)quinazolin-4-ylamino)benzamide] | – |
| 30.6 | COc1ccc(C(=O)O)c(Nc2ncnc3ccc(-c4ccc(O)c(OC)c4)cc23)c1 [Compound 48, 2-(6-(4-hydroxy-3-methoxyphenyl)quinazolin-4-ylamino)-4-methoxybenzoic acid] | – |
| 15.6 | COc1cc(-c2ccc3ncnc(Nc4ccccc4C(=O)O)c3c2)ccc1O [Compound 50, 2-(6-(4-hydroxy-3-methoxyphenyl)quinazolin-4-ylamino)benzoic acid] | – |
| 38.1 | COc1cc(-c2ccc3ncnc(Nc4cc(O)ccc4OC)c3c2)ccc1O [Compound 55, 4-(4-(5-hydroxy-2-methoxyphenylamino)quinazolin-6-yl)-2-methoxyphenol] | – |
| 4.8 | COc1cc(-c2ccc3ncnc(Nc4ccc(C(=O)O)cc4)c3c2)ccc1O [Compound 57, 4-(6-(4-hydroxy-3-methoxyphenyl)quinazolin-4-ylamino)benzoic acid] | – |
| 40.4 | COc1cc(-c2ccc3ncnc(Nc4cccc(NS(=O)(=O)C(F)(F)F)c4)c3c2)ccc1O [Compound 65, 1,1,1-trifluoro-N-(3-(6-(4-hydroxy-3-methoxyphenyl)quinazolin-4-ylamino)phenyl)methanesulfonamide] | – |
| 36.3 | COc1cc(-c2ccc3ncnc(Nc4cccc5[nH]ccc45)c3c2)ccc1O [Compound 83, 4-(4-(1H-indol-4-ylamino)quinazolin-6-yl)-2-methoxyphenol] | – |
| 44.1 | COc1cc(-c2ccc3ncnc(Nc4ccc(F)c(NS(C)(=O)=O)c4)c3c2)ccc1O [Compound 130, N-(2-fluoro-5-(6-(4-hydroxy-3-methoxyphenyl)quinazolin-4-ylamino)phenyl)methanesulfonamide] | – |
| 25.8 | COc1cc(-c2ccc3ncnc(Nc4cc(NS(C)(=O)=O)ccc4Cl)c3c2)ccc1O [Compound 139, N-(4-chloro-3-(6-(4-hydroxy-3-methoxyphenyl)quinazolin-4-ylamino)phenyl)methanesulfonamide] | – |
| 24.3 | COc1cc(-c2ccc3ncnc(Nc4ccc(Cl)c(NS(C)(=O)=O)c4)c3c2)ccc1O [Compound 140, N-(2-chloro-5-(6-(4-hydroxy-3-methoxyphenyl)quinazolin-4-ylamino)phenyl)methanesulfonamide] | – |
| 8.2 | COc1cc(-c2ccc3ncnc(Nc4c(C)ccc5[nH]ncc45)c3c2)ccc1O [Compound 155, 2-methoxy-4-(4-(5-methyl-1H-indazol-4-ylamino)quinazolin-6-yl)phenol] | – |
